From patent US20250281509A1, “SEQUENTIAL HORMONE THERAPY TO IMPROVE SURVIVAL AND ENHANCE RESPONSE TO IMMUNE THERAPY IN MEN WITH PROSTATE CANCER” (The Johns Hopkins University, priority 2021, published 2025) come the findings set out here.

One assay deals with LAPC4 cells. The conditions noted are these: androgen-deprived LAPC4 cells, high levels of DHT.
A further assay concerns ferritin. As to the kind of experiment: Ferritin level by western blot. It is filed as cell-based, human. As to conditions: LNCaP cells, supraphysiological levels. The procedure: (§1) Cell lysates were prepared either in 1× denaturing lysis buffer (Cell Signaling #9803) or non-denaturing lysis buffer (50 mM HEPES pH 7.4, 150 mM NaCl, 5 mM EDTA, 10% glycerol, 1% Nonidet P-40, and supplemented with phosphatase and protease inhibitors). For denaturing gels, lysates were mixed with Laemmli buffer containing β-mercaptoethanol, boiled for 5 mins and stored at −80° C. until use. Native lysates were mixed with native loading buffer (BioRad), and semi-native lysates were mixed with Laemmli buffer without beta-mercaptoethanol and stored at −80° C. without boiling. Native gels were resolved as described previously, Robitaille et al., 2016; denaturing and semi-native gels were resolved on 4-15% precast polyacrylamide gels (BioRad) followed by transfer to PVDF membrane. Membranes were blocked in 5% nonfat milk in wash buffer (Tris-buffered saline+0.1% Tween-20). After blocking, immunoblotting was performed with primary antibodies overnight at 4° C., followed by incubation with HRP-conjugated secondary antibodies for 1 h at room temperature. Blots were analyzed using the chemiluminescence method. Blots were developed using ECL Western blot detection reagent (GE Healthcare) for highly expressed proteins and Super Signal West Femto (Thermo Fisher) reagent for low expression proteins. Each experiment was repeated at least two to three times.
For orientation: In western blotting, separated proteins are transferred to a membrane and probed.

A further assay has as its system autophagy. Kind of assay: Autophagy induction in PCa cell lines. It is filed as cell-based, human. The procedure:
as §1
Cells were plated on 60-mm dishes to obtain 80% confluence on the next day. Cells were transfected with tandem mRFP-GFP fluorescent-tagged LC3 (ptfLC3) (Addgene #21074). 24 h post-transfection, cells were trypsinized and plated on sterile glass-bottom dishes at a 40-50% confluency and treated with androgens. Autophagosomes are labelled as green and red dual positive punctas and autolysosomes appear as red puncta as the green puncta is pH sensitive and quenched by the acidic lysosomal pH. Cells were then imaged using a live cell Zeiss LSM780-FCS Single-point, laser scanning confocal microscope. Images were processed using the ImageJ software. Cells with predominantly yellow RFP/GFP (autophagosome) or red RFP (autolysosome) punctae were counted and analyzed from at least twenty fields. Each experiment had images from at least five random fields and repeated three times.

For the next assay, the system named is STING. As to the kind of experiment: STING dimerization assay (native western blot). It counts as cell-based, human. As to conditions: LNCaP vs LAPC4 cells. The procedure:
as §1

For a further assay, the system named is NIK, p52, RELB. Kind of assay: Immunoblotting for non-canonical NF-kappaB pathway. It is filed as cell-based, human.
Another assay deals with CXCL10. As to the kind of experiment: CXCL10 transcript and protein. It counts as cell-based, human. The conditions noted are these: LNCaP vs LAPC4 cells. The procedure: Total RNA was extracted from cells using Trizol reagent (Thermo Fisher) as per manufacturer's instructions. cDNA was synthesized from RNA by reverse transcription using SuperScript IV reverse (Thermo Fisher). Quantitative PCR was performed on samples mixed with SYBR master mix (BioRad) and gene-specific primers using a real-time thermocycler (BioRad). Data analysis was performed using the ΔΔCt method, and fold change (2^^−ΔΔ^Ct) was calculated after double normalization with the housekeeper gene and respective untreated control. Each PCR reaction was run in triplicates.
Cell lysates were prepared either in 1× denaturing lysis buffer (Cell Signaling #9803) or non-denaturing lysis buffer (50 mM HEPES pH 7.4, 150 mM NaCl, 5 mM EDTA, 10% glycerol, 1% Nonidet P-40, and supplemented with phosphatase and protease inhibitors). For denaturing gels, lysates were mixed with Laemmli buffer containing β-mercaptoethanol, boiled for 5 mins and stored at −80° C. until use. […] Blots were analyzed using the chemiluminescence method. […]
The concentration of 17 chemokines, cytokines, and growth factors in culture supernatants of control or R1881 treated LNCaP cells was determined using the Bioplex Pro Human Cytokine 17-plex assay system (Bio-Rad) according to manufacturer's protocol. […] Data was collected on the Bio-Rad BioPlex 200 instrument and analyzed using the Bio-Plex Manager (Bio-Rad Laboratory).

A further assay has as its system LNCaP cells. As to conditions: androgen-deprived LNCaP cells, high-dose DHT.

Procedure for NIK, p52, RELB: For denaturing gels, lysates were mixed with Laemmli buffer containing β-mercaptoethanol, boiled for 5 mins and stored at −80° C. until use. Native lysates were mixed with native loading buffer (BioRad), and semi-native lysates were mixed with Laemmli buffer without beta-mercaptoethanol and stored at −80° C. without boiling. […] Membranes were blocked in 5% nonfat milk in wash buffer (Tris-buffered saline+0.1% Tween-20). After blocking, immunoblotting was performed with primary antibodies overnight at 4° C., followed by incubation with HRP-conjugated secondary antibodies for 1 h at room temperature. Blots were analyzed using the chemiluminescence method. Blots were developed using ECL Western blot detection reagent (GE Healthcare) for highly expressed proteins and Super Signal West Femto (Thermo Fisher) reagent for low expression proteins. Each experiment was repeated at least two to three times.

Turning to `C[C@]12CCC(=O)C[C@@H]1CC[C@@H]1[C@@H]2CC[C@]2(C)[C@@H](O)CC[C@@H]12` [DHT, dihydrotestosterone], in the assay on LAPC4 cells, the “double strand breaks (γH2A.x foci)” value was “numerous double strand breaks throughout the nucleus”. Further, the ferritin levels entry with ferritin was “decreased ferritin levels”. The autophagy entry in the assay with autophagy (LAPC4 cells) is given as “but not in LAPC4 cells”; in the assay on autophagy (LNCaP cells) it was “robustly increased autophagy”. Moreover, in the assay with STING, the “STING and MAVS activation” value is “activated STING and MAVS preferentially in LNCaP cells, however, the activation was not as robust as R1881”. The “RelB and NIK stabilization” value in the assay on NIK, p52, RELB is “led to stabilization of RelB and NIK”. In addition, the CXCL10 induction entry in the assay with CXCL10 is listed as “able to induce CXCL10 (less robustly than R1881) preferentially in LNCaP cells”. Further, the “double strand break formation (γH2A.x foci)” value with LNCaP cells was “numerous γH2A.x foci”.
